Laboratory results as given in patent publication US20260262643A1, “HERBICIDAL BENZOXAZINES” (FMC CORPORATION, priority 2022, published 2026).

Legend:
green foxtail [1] = assay: Test C preemergence; format: in vivo, Setaria viridis; settings: 0 to 100 scale (0 no effect, 100 complete control); for Foxtail, Green plant response rating: preemergence
Summary of the method: (§1)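 Soil-applied (pre) and foliar (post, 1–2 leaf, 2–10 cm) sprays; surfactant-containing non-phytotoxic solvent vehicle; loam/sand substrate. Readout: visual % control at 10 d, greenhouse, versus untreated.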

wheat [2] = assay: Test C preemergence; format: in vivo, Triticum aestivum; settings: 0 to 100 scale (0 no effect, 100 complete control); for Wheat plant response rating: preemergence
Summary of the method: as §1

pigweed, palmer [3] = assay: Test C postemergence; format: in vivo, Amaranthus palmeri; settings: 10 days
Summary of the method: as §1

green foxtail [4] = assay: Test C postemergence; format: in vivo, Setaria viridis; settings: 10 days
Summary of the method: as §1

ducksalad = assay: Test D flooded paddy test; format: in vivo, Heteranthera limosa; settings: 250 g ai/ha, applied to paddy water, visual rating after 13 to 14 days, scale 0 to 100 (0 no effect, 100 complete control)
Summary of the method: (§2)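 Compounds go straight into paddy water over 2-leaf plants in pots flooded to 3 cm. Greenhouse holding lasts 13 to 14 days. Injury is scored by eye against controls from 0 (none) to 100 (complete control).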

barnyardgrass [5] = assay: Test C postemergence; format: in vivo, Echinochloa crusgalli; settings: 10 days
Summary of the method: as §1

sedge, umbrella = assay: Test D flooded paddy test; format: in vivo, Cyperus difformis; settings: 250 g ai/ha, applied to paddy water, visual rating after 13 to 14 days, scale 0 to 100 (0 no effect, 100 complete control)
Summary of the method: as §2

wheat [6] = assay: Test C postemergence; format: in vivo, Triticum aestivum; settings: 10 days
Summary of the method: as §1

soybean [7] = assay: Test C preemergence; format: in vivo, Glycine max; settings: 0 to 100 scale (0 no effect, 100 complete control); for Soybean plant response rating: preemergence
Summary of the method: as §1

soybean [8] = assay: Test C postemergence; format: in vivo, Glycine max; settings: 10 days
Summary of the method: as §1

rice = assay: Test D flooded paddy test; format: in vivo, Oryza sativa; settings: 250 g ai/ha, applied to paddy water, visual rating after 13 to 14 days, scale 0 to 100 (0 no effect, 100 complete control)
Summary of the method: as §2

kochia [9] = assay: Test C preemergence; format: in vivo, Bassia scoparia; settings: 0 to 100 scale (0 no effect, 100 complete control); for Kochia plant response rating: preemergence
Summary of the method: as §1

barnyardgrass [10] = assay: Test D flooded paddy test; format: in vivo, Echinochloa crus-galli; settings: 250 g ai/ha, applied to paddy water, visual rating after 13 to 14 days, scale 0 to 100 (0 no effect, 100 complete control)
Summary of the method: as §2

ragweed [11] = assay: Test C postemergence; format: in vivo, Ambrosia artemisiifolia; settings: 10 days
Summary of the method: as §1

pigweed, palmer [12] = assay: Test C preemergence; format: in vivo, Amaranthus palmeri; settings: 0 to 100 scale (0 no effect, 100 complete control); for Pigweed, Palmer plant response rating: preemergence
Summary of the method: as §1

blackgrass [13] = assay: Test C preemergence; format: in vivo, Alopecurus myosuroides; settings: 0 to 100 scale (0 no effect, 100 complete control); for Plant response rating, Blackgrass: Preemergence, 500 g ai/ha, visual rating after 10 days; for Blackgrass plant response rating: Test C, preemergence, 125 g ai/ha
Summary of the method: as §1

ryegrass, Italian [14] = assay: Test C postemergence; format: in vivo, Lolium multiflorum; settings: 10 days
Summary of the method: as §1

corn [15] = assay: Test C preemergence; format: in vivo, Zea mays; settings: 0 to 100 scale (0 no effect, 100 complete control); for Corn plant response rating: preemergence
Summary of the method: as §1

ragweed [16] = assay: Test C preemergence; format: in vivo, Ambrosia artemisiifolia; settings: 0 to 100 scale (0 no effect, 100 complete control); for Ragweed plant response rating: preemergence
Summary of the method: as §1

barnyardgrass [17] = assay: Test C preemergence; format: in vivo, Echinochloa crusgalli; settings: 0 to 100 scale (0 no effect, 100 complete control); for Barnyardgrass plant response rating: 125 g ai/ha, preemergence; for Plant response rating, Barnyardgrass: Preemergence, 500 g ai/ha, visual rating after 10 days
Summary of the method: as §1

oat, wild [18] = assay: Test C preemergence; format: in vivo, Avena fatua; settings: 0 to 100 scale (0 no effect, 100 complete control); for Oat, Wild plant response rating: preemergence
Summary of the method: as §1

corn [19] = assay: Test C postemergence; format: in vivo, Zea mays; settings: 10 days
Summary of the method: as §1

oat, wild [20] = assay: Test C postemergence; format: in vivo, Avena fatua; settings: 10 days
Summary of the method: as §1

horseweed = assay: Test C postemergence; format: in vivo, Erigeron canadensis; settings: 10 days
Summary of the method: as §1

blackgrass [21] = assay: Test C postemergence; format: in vivo, Alopecurus myosuroides; settings: 10 days
Summary of the method: as §1

kochia [22] = assay: Test C postemergence; format: in vivo, Bassia scoparia; settings: 10 days
Summary of the method: as §1

ryegrass, Italian [23] = assay: Test C preemergence; format: in vivo, Lolium multiflorum; settings: 0 to 100 scale (0 no effect, 100 complete control); for Ryegrass, Italian plant response rating: preemergence
Summary of the method: as §1

galium = assay: Test C postemergence; format: in vivo, Galium aparine; settings: 10 days
Summary of the method: as §1

[24] = Preemergence, 500 g ai/ha, visual rating after 10 days
[25] = 125 g ai/ha, postemergence, 0 to 100 scale, 0 no effect, 100 complete control
[26] = Postemergence, 500 g ai/ha, visual 0 to 100 scale (0 no effect, 100 complete control)

Cc1c(F)cc(-n2cnc(C(C)C)n2)cc1C(=O)N1C[C@H](C)Oc2c(Cl)cccc21 [Compound 151]
50: Plant response rating, Ducksalad (Flood) (ducksalad) | Soybean plant response rating (soybean [7]; Test C, 125 g ai/ha) | Blackgrass plant response rating (blackgrass [13]) | Plant response rating, Corn (corn [15]; [24]) | Plant response rating, Oat, Wild (oat, wild [20]; [26])
90: Plant response rating, Pigweed, Palmer (pigweed, palmer [3]; [25]) | Plant response rating, Foxtail, Green (green foxtail [4]; [26]) | Plant response rating, Soybean (soybean [7]; [24]) | Plant response rating, Ragweed (ragweed [11]; [26]) | Plant response rating, Blackgrass (blackgrass [13]) | Barnyardgrass plant response rating (barnyardgrass [17]) | Plant response rating, Oat, Wild (oat, wild [18]; [24]) | Plant response rating, Corn (corn [19]; [26]) | Plant response rating, Kochia (kochia [22]; [25]) | Plant response rating, Ryegrass, Italian (ryegrass, Italian [23]; [24])
75: Plant response rating, Sedge, Umbrella (Flood) (sedge, umbrella)
100: Plant response rating, Foxtail, Green (green foxtail [1]; [24]) | Foxtail, Green plant response rating (green foxtail [1]; Test C, 125 g ai/ha) | Plant response rating, Pigweed, Palmer (pigweed, palmer [3]; [26]) | Plant response rating, Barnyardgrass (barnyardgrass [5]; [26]) | Plant response rating, Soybean (soybean [8]; [25]) | Plant response rating, Soybean (soybean [8]; [26]) | Plant response rating, Kochia (kochia [9]; [24]) | Kochia plant response rating (kochia [9]; Test C, 125 g ai/ha) | Plant response rating, Pigweed, Palmer (pigweed, palmer [12]; [24]) | Pigweed, Palmer plant response rating (pigweed, palmer [12]; Test C, 125 g ai/ha) | Plant response rating, Barnyardgrass (barnyardgrass [17]) | Plant response rating, Kochia (kochia [22]; [26]) | Plant response rating, Galium (galium; [25]) | Plant response rating, Galium (galium; [26])
40: Plant response rating, Barnyardgrass (Flood) (barnyardgrass [10]) | Plant response rating, Horseweed (horseweed; [25])
80: Plant response rating, Wheat (wheat [2]; [24]) | Wheat plant response rating (wheat [2]; Test C, 125 g ai/ha) | Plant response rating, Foxtail, Green (green foxtail [4]; [25]) | Plant response rating, Ryegrass, Italian (ryegrass, Italian [14]; [26]) | Plant response rating, Ragweed (ragweed [16]; [24]) | Plant response rating, Horseweed (horseweed; [26]) | Plant response rating, Blackgrass (blackgrass [21]; [25]) | Plant response rating, Blackgrass (blackgrass [21]; [26]) | Ryegrass, Italian plant response rating (ryegrass, Italian [23]; Test C, 125 g ai/ha)
70: Plant response rating, Barnyardgrass (barnyardgrass [5]; [25]) | Plant response rating, Ragweed (ragweed [11]; [25])
45: Plant response rating, Rice (Flood) (rice)
60: Plant response rating, Ryegrass, Italian (ryegrass, Italian [14]; [25]) | Plant response rating, Corn (corn [19]; [25])
30: Plant response rating, Wheat (wheat [6]; [26]) | Ragweed plant response rating (ragweed [16]; Test C, 125 g ai/ha) | Oat, Wild plant response rating (oat, wild [18]; Test C, 125 g ai/ha)
20: Plant response rating, Wheat (wheat [6]; [25]) | Corn plant response rating (corn [15]; Test C, 125 g ai/ha) | Plant response rating, Oat, Wild (oat, wild [20]; [25])

CCc1ccc(-n2cnc(C(C)(C)O)n2)cc1C(=O)N1C[C@H](C)Oc2c(Cl)cccc21 [Compound 277]
0: Plant response rating, Horseweed (horseweed; [25])
15: Plant response rating, Rice (Flood) (rice)
90: Plant response rating, Foxtail, Green (green foxtail [4]; [25]) | Plant response rating, Foxtail, Green (green foxtail [4]; [26]) | Soybean plant response rating (soybean [7]; Test C, 125 g ai/ha) | Kochia plant response rating (kochia [9]; 500 g ai/ha) | Plant response rating, Blackgrass (blackgrass [13]) | Plant response rating, Ryegrass, Italian (ryegrass, Italian [14]; [25]) | Oat, Wild plant response rating (oat, wild [18]; 500 g ai/ha) | Plant response rating, Corn (corn [19]; [25]) | Plant response rating, Blackgrass (blackgrass [21]; [26])
40: Plant response rating, Ducksalad (Flood) (ducksalad)
98: Plant response rating, Sedge, Umbrella (Flood) (sedge, umbrella)
30: Ragweed plant response rating (ragweed [16]; Test C, 125 g ai/ha) | Plant response rating, Horseweed (horseweed; [26])
80: Wheat plant response rating (wheat [2]; 500 g ai/ha) | Plant response rating, Pigweed, Palmer (pigweed, palmer [3]; [25]) | Plant response rating, Ragweed (ragweed [11]; [25]) | Blackgrass plant response rating (blackgrass [13]) | Corn plant response rating (corn [15]; 500 g ai/ha) | Oat, Wild plant response rating (oat, wild [18]; Test C, 125 g ai/ha) | Plant response rating, Oat, Wild (oat, wild [20]; [25]) | Plant response rating, Blackgrass (blackgrass [21]; [25]) | Ryegrass, Italian plant response rating (ryegrass, Italian [23]; Test C, 125 g ai/ha)
50: Wheat plant response rating (wheat [2]; Test C, 125 g ai/ha) | Plant response rating, Wheat (wheat [6]; [25]) | Corn plant response rating (corn [15]; Test C, 125 g ai/ha)
70: Kochia plant response rating (kochia [9]; Test C, 125 g ai/ha) | Ragweed plant response rating (ragweed [16]; 500 g ai/ha) | Plant response rating, Kochia (kochia [22]; [25])
55: Plant response rating, Barnyardgrass (Flood) (barnyardgrass [10])
100: Foxtail, Green plant response rating (green foxtail [1]; 500 g ai/ha) | Foxtail, Green plant response rating (green foxtail [1]; Test C, 125 g ai/ha) | Plant response rating, Barnyardgrass (barnyardgrass [5]; [25]) | Plant response rating, Barnyardgrass (barnyardgrass [5]; [26]) | Soybean plant response rating (soybean [7]; 500 g ai/ha) | Plant response rating, Soybean (soybean [8]; [25]) | Pigweed, Palmer plant response rating (pigweed, palmer [12]; 500 g ai/ha) | Pigweed, Palmer plant response rating (pigweed, palmer [12]; Test C, 125 g ai/ha) | Plant response rating, Barnyardgrass (barnyardgrass [17]) | Barnyardgrass plant response rating (barnyardgrass [17]; Test C) | Plant response rating, Corn (corn [19]; [26]) | Ryegrass, Italian plant response rating (ryegrass, Italian [23]; 500 g ai/ha) | Plant response rating, Galium (galium; [25]) | Plant response rating, Galium (galium; [26])
